Assays:
PDE10 from pig striatum = PDE10 from pig striatum (Sus scrofa, UniProt A0A287B941); test: Inhibition of PDE10 from pig striatum ([3H]-cAMP SPA, Methods A and B); format: biochemical; details: for IC50: PDE10 pig
Method: Striatum from male Wistar rats (180-200 g), male hybrid pigs (150 kg) and male guinea pigs (CRL (HA), 500 g) respectively were collected and frozen at −70° C. At the day of preparation 0.5 g striatum was homogenised in 10 ml 50 mM Tris/Mg-buffer at 4° C. and centrifuged for one hour at 100000 g. The supernatant is called the cytosolic fraction and was removed and stored on ice. The pellet was resuspended in the same buffer, but containing 1% Triton and incubated for 45 min at 4° C. Both fractions were independently applied onto a 5 ml Hi Trap™ QHP column at the Äkta-FPLC. After washing the columns the bound PDE protein was eluted with an increasing sodium chloride gradient (0 mM-500 mM sodium chloride) in 50 mM Tris/Mg-buffer at 4° C. for the cytosolic fraction and in the presence of 1% Triton for the membrane fraction. […] The fractions with PDE10-activity were pooled and frozen in aliquots until use at −20° C. PDE10 activity was determined in a one step procedure in microtiter plates. […] Nonspecific activity was tested without the enzyme. The reaction was initiated by addition of the substrate solution and was carried out at 37° C. for 30 minutes. Enzymatic activity was stopped by addition of 25 μl YSi-SPA-beads (Amersham-Pharmacia). One hour later the mixture was measured in a liquid scintillation counter for microtiter plates (Microbeta Trilux). To pipette the incubation mixture a robot Biomek (Fa. Beckman) is used. […] For determination of IC50 values the Hill-plot, 2-parameter-model, was used. […] Striatum from male hybrid pigs (150 kg) were collected and frozen at −70° C. At the day of preparation 0.5 g striatum was homogenised in 10 ml 50 mM Tris/Mg-buffer at 4° C. and centrifuged for one hour at 100000 g. The supernatant was removed and the pellet was resuspended in the same buffer, but containing 1% Triton and incubated for 45 min at 4° C. The membrane fraction was applied onto a 5 ml Hi Trap™ QHP column at the Äkta-FPLC. After washing the column the bound PDE protein was eluted with an increasing sodium chloride gradient (0 mM-500 mM sodium chloride) in 50 mM Tris/Mg-buffer at 4° C. in the presence of 1% Triton. […] The fractions with PDE10-activity were pooled and frozen in aliquots until use at −20° C. PDE10 activity was determined in a one step procedure in microtiterplates. […] Nonspecific activity was tested without the enzyme. The reaction was initiated by addition of the substrate solution and was carried out at 37° C. for 30 minutes. Enzymatic activity was stopped by addition of 25 μl YSi-SPA-beads (Amersham-Pharmacia). One hour later the mixture was measured in a liquid scintillation counter for microtiterplates (Microbeta Trilux). To pipette the incubation mixture a robot Biomek (Fa. Beckman) is used. […] For determination of IC50 values the Hill-plot, 2-parameter-model, was used.

human recombinant PDE10A = molecular target: T1, human recombinant PDE10A (Homo sapiens, UniProt Q9Y233); test: Inhibition of human recombinant PDE10A ([3H]-cAMP SPA, Method B); format: biochemical; details: read-out: PDE10 inhibition IC50 [nM] PDE10A human
T1 construct: made in house; host or cells: SF21 insect cells (baculovirus)
T1 sequence (Q9Y233 1-779 isoform Q9Y233-1): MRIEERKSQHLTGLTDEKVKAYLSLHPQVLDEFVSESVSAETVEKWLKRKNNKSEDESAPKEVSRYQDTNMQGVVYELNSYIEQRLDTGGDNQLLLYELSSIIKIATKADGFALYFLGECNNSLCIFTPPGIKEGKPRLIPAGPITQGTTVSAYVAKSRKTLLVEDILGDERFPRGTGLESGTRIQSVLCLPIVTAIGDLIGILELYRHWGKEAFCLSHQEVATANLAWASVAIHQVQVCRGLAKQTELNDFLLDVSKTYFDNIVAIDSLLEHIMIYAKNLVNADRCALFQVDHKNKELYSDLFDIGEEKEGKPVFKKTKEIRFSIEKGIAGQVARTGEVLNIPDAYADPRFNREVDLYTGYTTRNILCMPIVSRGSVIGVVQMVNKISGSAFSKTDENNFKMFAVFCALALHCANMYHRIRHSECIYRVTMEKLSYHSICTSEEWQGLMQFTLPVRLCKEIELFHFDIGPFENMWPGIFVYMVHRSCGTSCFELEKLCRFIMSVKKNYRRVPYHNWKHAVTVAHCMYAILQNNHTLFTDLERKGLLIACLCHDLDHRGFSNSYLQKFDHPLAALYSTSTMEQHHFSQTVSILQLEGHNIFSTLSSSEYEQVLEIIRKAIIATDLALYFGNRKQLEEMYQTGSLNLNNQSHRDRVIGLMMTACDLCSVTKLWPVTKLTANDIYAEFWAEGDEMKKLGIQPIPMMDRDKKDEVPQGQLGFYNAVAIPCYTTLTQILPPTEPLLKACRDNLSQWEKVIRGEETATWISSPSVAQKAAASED

rats [1] = details: Kostowski et al. 1976; cited from earlier work
rats [2] = details: Kostowski et al. 1976; cited from earlier work; remark: listed apart in the source
rats [3] = details: Kostowski et al. 1976; cited from earlier work; remark: listed apart in the source
[4] = molecular target: Phosphodiesterase (PDE) 10A (Homo sapiens, UniProt Q9Y233); details: Soderling et al. 1999; read-out: Km of substrate; cited from earlier work
Phosphodiesterase (PDE) 10A, sequence (Q9Y233 whole entry): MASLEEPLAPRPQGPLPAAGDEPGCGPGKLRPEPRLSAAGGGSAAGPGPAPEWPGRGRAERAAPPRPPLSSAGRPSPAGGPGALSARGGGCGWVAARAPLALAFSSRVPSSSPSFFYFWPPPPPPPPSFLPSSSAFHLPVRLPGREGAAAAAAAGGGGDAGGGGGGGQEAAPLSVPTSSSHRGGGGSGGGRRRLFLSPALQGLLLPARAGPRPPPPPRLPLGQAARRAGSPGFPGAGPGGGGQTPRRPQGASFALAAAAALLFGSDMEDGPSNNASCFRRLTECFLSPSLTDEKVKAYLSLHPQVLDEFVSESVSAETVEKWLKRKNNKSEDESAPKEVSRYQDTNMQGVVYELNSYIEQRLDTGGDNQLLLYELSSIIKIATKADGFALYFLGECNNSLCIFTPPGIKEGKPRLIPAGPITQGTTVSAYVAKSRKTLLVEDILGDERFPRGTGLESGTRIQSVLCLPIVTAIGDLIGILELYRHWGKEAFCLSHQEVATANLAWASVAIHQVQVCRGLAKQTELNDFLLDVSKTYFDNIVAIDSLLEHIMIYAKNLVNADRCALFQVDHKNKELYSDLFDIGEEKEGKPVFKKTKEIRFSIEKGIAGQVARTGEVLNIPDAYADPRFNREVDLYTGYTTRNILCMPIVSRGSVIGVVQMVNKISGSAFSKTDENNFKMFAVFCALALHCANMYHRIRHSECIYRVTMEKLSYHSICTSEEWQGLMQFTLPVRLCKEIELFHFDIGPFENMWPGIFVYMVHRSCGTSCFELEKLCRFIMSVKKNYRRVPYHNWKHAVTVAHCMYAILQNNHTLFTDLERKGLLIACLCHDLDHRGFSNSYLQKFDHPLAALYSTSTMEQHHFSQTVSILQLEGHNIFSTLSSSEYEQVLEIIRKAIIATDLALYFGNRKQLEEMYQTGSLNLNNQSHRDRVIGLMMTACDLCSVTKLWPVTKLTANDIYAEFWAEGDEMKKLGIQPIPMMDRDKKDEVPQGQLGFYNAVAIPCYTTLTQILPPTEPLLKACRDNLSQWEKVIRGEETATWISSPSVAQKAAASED

PDE10 from rat striatum = molecular target: T2, PDE10 from rat striatum (Rattus norvegicus, UniProt Q9QYJ6); test: Inhibition of PDE10 from rat striatum (Method A); format: biochemical; details: read-out: Km of substrate
T2 construct: from tissue; host or cells: rat striatum (male Wistar)
T2 sequence (Q9QYJ6 1-794): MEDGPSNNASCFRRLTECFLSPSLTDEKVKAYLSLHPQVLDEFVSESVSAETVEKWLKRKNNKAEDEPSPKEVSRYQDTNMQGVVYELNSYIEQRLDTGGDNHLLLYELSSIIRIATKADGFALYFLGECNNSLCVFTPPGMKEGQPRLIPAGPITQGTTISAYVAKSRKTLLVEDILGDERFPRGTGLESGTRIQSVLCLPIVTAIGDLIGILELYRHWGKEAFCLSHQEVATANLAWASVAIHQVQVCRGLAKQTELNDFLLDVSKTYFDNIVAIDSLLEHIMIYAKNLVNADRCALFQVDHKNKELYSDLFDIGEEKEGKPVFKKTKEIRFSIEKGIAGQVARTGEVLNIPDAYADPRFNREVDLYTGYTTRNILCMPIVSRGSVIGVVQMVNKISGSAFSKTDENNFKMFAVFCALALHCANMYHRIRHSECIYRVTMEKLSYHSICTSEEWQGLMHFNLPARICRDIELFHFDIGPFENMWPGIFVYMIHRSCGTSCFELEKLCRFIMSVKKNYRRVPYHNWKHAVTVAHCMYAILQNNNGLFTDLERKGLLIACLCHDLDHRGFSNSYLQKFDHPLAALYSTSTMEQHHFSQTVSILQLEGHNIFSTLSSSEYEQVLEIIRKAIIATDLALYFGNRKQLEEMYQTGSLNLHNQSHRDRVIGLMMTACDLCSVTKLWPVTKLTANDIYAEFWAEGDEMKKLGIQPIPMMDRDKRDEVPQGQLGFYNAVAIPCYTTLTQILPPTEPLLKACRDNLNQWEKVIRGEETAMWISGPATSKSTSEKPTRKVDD
Method: Striatum from male Wistar rats (180-200 g), male hybrid pigs (150 kg) and male guinea pigs (CRL (HA), 500 g) respectively were collected and frozen at −70° C. At the day of preparation 0.5 g striatum was homogenised in 10 ml 50 mM Tris/Mg-buffer at 4° C. and centrifuged for one hour at 100000 g. The supernatant is called the cytosolic fraction and was removed and stored on ice. The pellet was resuspended in the same buffer, but containing 1% Triton and incubated for 45 min at 4° C. Both fractions were independently applied onto a 5 ml Hi Trap™ QHP column at the Äkta-FPLC. After washing the columns the bound PDE protein was eluted with an increasing sodium chloride gradient (0 mM-500 mM sodium chloride) in 50 mM Tris/Mg-buffer at 4° C. for the cytosolic fraction and in the presence of 1% Triton for the membrane fraction. […] The fractions with PDE10-activity were pooled and frozen in aliquots until use at −20° C. PDE10 activity was determined in a one step procedure in microtiter plates. […] Nonspecific activity was tested without the enzyme. The reaction was initiated by addition of the substrate solution and was carried out at 37° C. for 30 minutes. Enzymatic activity was stopped by addition of 25 μl YSi-SPA-beads (Amersham-Pharmacia). One hour later the mixture was measured in a liquid scintillation counter for microtiter plates (Microbeta Trilux). […]

Structure (SMILES)	IC50 (PDE10 from pig striatum) [nM]	melting point [°C]	IC50 (human recombinant PDE10A) [nM]	other results
CCCc1nc(C)c2c(C)nc3ccc(OCC4CC4)cc3n12 [Example 42, 8-Cyclopropylmethoxy-3,4-dimethyl-1-propyl-imidazo[1,5-a]quinoxaline]	10 to 100	110 to 112	10 to 100	–
Cc1nc(C2CCCCC2)n2c1c(C)nc1ccc(OCC3CC3)cc12 [Example 44, 1-Cyclohexyl-8-cyclopropylmethoxy-3,4-dimethyl-imidazo[1,5-a]quinoxaline]	10 to 100	154 to 157	≥ 100	–
CCCc1nc(C)c2c(C)nc3c(OC)cc(OC)cc3n12 [Example 45, 6,8-Dimethoxy-3,4-dimethyl-1-propyl-imidazo[1,5-a]quinoxaline]	≤ 10	185 to 187	≤ 10	–
COc1ccc2c(c1)nc(C)c1c(C)nc(-c3ccccc3Cl)n12 [Example 47, 1-(2-Chloro-phenyl)-7-methoxy-3,4-dimethyl-imidazo[1,5-a]quinoxaline]	≤ 10	186 to 188.5	10 to 100	–
CCCc1nc(C)c2c(C)nc3cc(OCc4ccc5ccccc5n4)ccc3n12 [Example 49, 3,4-Dimethyl-1-propyl-7-(quinolin-2-ylmethoxy)-imidazo(1,5-a)quinoxaline]	≤ 10	134 to 136	≤ 10	–
Cc1nc(-c2ccccc2Cl)n2c1c(C)nc1c(OCC3CC3)cc(OCC3CC3)cc12 [Example 50, 1-(2-Chloro-phenyl)-6,8-bis-cyclopropylmethoxy-3,4-dimethyl-imidazo[1,5-a]quinoxaline]	≤ 10	180 to 195	≤ 10	–
COc1cc(OC)c2nc(C)c3c(C)nc(C4CCCCC4)n3c2c1 [Example 51, 1-Cyclohexyl-6,8-dimethoxy-3,4-dimethyl-imidazo[1,5-a]quinoxaline]	≤ 10	219 to 222	≤ 10	–
COc1cc(OC)c2nc(C)c3c(C)nc(-c4ccccc4C)n3c2c1 [Example 52, 6,8-Dimethoxy-3,4-dimethyl-1-o-tolyl-imidazo[1,5-a]quinoxaline]	≤ 10	168 to 169	≤ 10	–
COc1cc(OC)c2nc(C)c3c(C)nc(-c4ccccc4Cl)n3c2c1 [Example 53, 1-(2-Chloro-phenyl)-6,8-dimethoxy-3,4-dimethyl-imidazo[1,5-a]quinoxaline]	≤ 10	183 to 189	≤ 10	–
COc1ccc(Cc2nccc3cc(OC)c(OC)cc23)cc1OC [Papaverine]	–	–	–	apomorphine-induced stereotypies (rats [1]): reduces; dopamine concentration in rat brain (rats [2]): reducing; haloperidol-induced catalepsy (rats [3]): increases
Nc1nc2c(ncn2[C@@H]2O[C@@H]3COP(=O)(O)O[C@H]3[C@H]2O)c(=O)[nH]1 [cGMP]	–	–	–	Km [4]: 3 µM; Km (PDE10 from pig striatum; Method A, PDE10 from pig striatum, read-out: Km of substrate): 2.2 µM; Km (PDE10 from rat striatum): 1.8 µM
